Laboratory results from the supplement of paper PMC10307832.

Key:
Assay in all cases: relative viability (nuclei count vs DMSO), 5 days (fraction); higher = more cells survive
201T = tested on: 201T
Procedure, shortened: (§1)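 Dosing by pin tool came one day after lung cancer cell lines were seeded in 1536-well plates, using either one drug or a fixed anchor-drug dose plus five library-drug doses (not always all listed) in √10 steps. After 5 days, nuclei were counted on 4× images. Relative viability is treated-well nuclei count divided by vehicle-well nuclei count, and values are medians of duplicate plates.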

COR-L 105 = tested on: COR-L 105
Procedure, shortened: as §1

NCI-H460 = tested on: NCI-H460
Procedure, shortened: as §1

NCI-H3122 = tested on: NCI-H3122
Procedure, shortened: as §1

LK-2 = tested on: LK-2
Procedure, shortened: as §1

NCI-H1437 = tested on: NCI-H1437
Procedure, shortened: as §1

NCI-H727 = tested on: NCI-H727
Procedure, shortened: as §1

CAL-12T = tested on: CAL-12T
Procedure, shortened: as §1

NCI-H1666 = tested on: NCI-H1666
Procedure, shortened: as §1

HARA = tested on: HARA
Procedure, shortened: as §1

NCI-H2009 = tested on: NCI-H2009
Procedure, shortened: as §1

EKVX = tested on: EKVX
Procedure, shortened: as §1

HCC-366 = tested on: HCC-366
Procedure, shortened: as §1

ABC-1 = tested on: ABC-1
Procedure, shortened: as §1

NCI-H441 = tested on: NCI-H441
Procedure, shortened: as §1

PC-14 = tested on: PC-14
Procedure, shortened: as §1

NCI-H2170 = tested on: NCI-H2170
Procedure, shortened: as §1

BEN = tested on: BEN
Procedure, shortened: as §1

NCI-H661 = tested on: NCI-H661
Procedure, shortened: as §1

LOU-NH91 = tested on: LOU-NH91
Procedure, shortened: as §1

## CCN(CC)CCCCNc1ncc2cc(-c3cc(OC)cc(OC)c3)c(NC(=O)NC(C)(C)C)nc2n1 + Cc1nc(NC(=O)N2CCC[C@H]2C(N)=O)sc1-c1ccnc(C(C)(C)C(F)(F)F)c1 [Alpelisib] (partner 2 µM)
201T; first compound 0.01 µM
  relative viability: 1.05
201T; first compound 0.03162 µM
  relative viability: 1.01
201T; first compound 0.1 µM
  relative viability: 1.09
201T; first compound 0.3162 µM
  relative viability: 1.1
201T; first compound 1 µM
  relative viability: 0.97
COR-L 105; first compound 0.01 µM
  relative viability: 1
COR-L 105; first compound 0.03162 µM
  relative viability: 0.981
COR-L 105; first compound 0.1 µM
  relative viability: 1.06
COR-L 105; first compound 0.3162 µM
  relative viability: 1.01
COR-L 105; first compound 1 µM
  relative viability: 0.917
NCI-H460; first compound 0.01 µM
  relative viability: 0.646
NCI-H460; first compound 0.03162 µM
  relative viability: 0.58
NCI-H460; first compound 0.1 µM
  relative viability: 0.82
NCI-H460; first compound 0.3162 µM
  relative viability: 0.463
NCI-H460; first compound 1 µM
  relative viability: 0.399
NCI-H3122; first compound 0.01 µM
  relative viability: 0.941
NCI-H3122; first compound 0.03162 µM
  relative viability: 0.877
NCI-H3122; first compound 0.1 µM
  relative viability: 0.906
NCI-H3122; first compound 0.3162 µM
  relative viability: 0.931
NCI-H3122; first compound 1 µM
  relative viability: 0.824
LK-2; first compound 0.01 µM
  relative viability: 0.679
LK-2; first compound 0.03162 µM
  relative viability: 0.891
LK-2; first compound 0.1 µM
  relative viability: 0.848
LK-2; first compound 0.3162 µM
  relative viability: 0.6
LK-2; first compound 1 µM
  relative viability: 0.301
NCI-H1437; first compound 0.01 µM
  relative viability: 1.23
NCI-H1437; first compound 0.03162 µM
  relative viability: 0.944
NCI-H1437; first compound 0.1 µM
  relative viability: 1
NCI-H1437; first compound 0.3162 µM
  relative viability: 1.03
NCI-H1437; first compound 1 µM
  relative viability: 0.947
NCI-H727; first compound 0.01 µM
  relative viability: 0.586
NCI-H727; first compound 0.03162 µM
  relative viability: 0.449
NCI-H727; first compound 0.1 µM
  relative viability: 0.678
NCI-H727; first compound 0.3162 µM
  relative viability: 0.579
NCI-H727; first compound 1 µM
  relative viability: 0.543
CAL-12T; first compound 0.01 µM
  relative viability: 1.35
CAL-12T; first compound 0.03162 µM
  relative viability: 1.24
CAL-12T; first compound 0.1 µM
  relative viability: 1.14
CAL-12T; first compound 0.3162 µM
  relative viability: 1.49
CAL-12T; first compound 1 µM
  relative viability: 0.902
NCI-H1666; first compound 0.01 µM
  relative viability: 0.963
NCI-H1666; first compound 0.03162 µM
  relative viability: 0.889
NCI-H1666; first compound 0.1 µM
  relative viability: 1.02
NCI-H1666; first compound 0.3162 µM
  relative viability: 0.995
NCI-H1666; first compound 1 µM
  relative viability: 0.74
HARA; first compound 0.01 µM
  relative viability: 1.06
HARA; first compound 0.03162 µM
  relative viability: 0.872
HARA; first compound 0.1 µM
  relative viability: 1.03
HARA; first compound 0.3162 µM
  relative viability: 0.801
HARA; first compound 1 µM
  relative viability: 0.685
NCI-H2009; first compound 0.01 µM
  relative viability: 1.15
NCI-H2009; first compound 0.03162 µM
  relative viability: 1.14
NCI-H2009; first compound 0.1 µM
  relative viability: 1.24
NCI-H2009; first compound 0.3162 µM
  relative viability: 1.18
NCI-H2009; first compound 1 µM
  relative viability: 1.16
EKVX; first compound 0.01 µM
  relative viability: 0.818
EKVX; first compound 0.03162 µM
  relative viability: 0.898
EKVX; first compound 0.1 µM
  relative viability: 0.875
EKVX; first compound 0.3162 µM
  relative viability: 1.04
EKVX; first compound 1 µM
  relative viability: 0.893
HCC-366; first compound 0.01 µM
  relative viability: 0.385
HCC-366; first compound 0.03162 µM
  relative viability: 0.326
HCC-366; first compound 0.1 µM
  relative viability: 0.757
HCC-366; first compound 0.3162 µM
  relative viability: 0.584
HCC-366; first compound 1 µM
  relative viability: 0.47
ABC-1; first compound 0.01 µM
  relative viability: 1.2
ABC-1; first compound 0.03162 µM
  relative viability: 0.997
ABC-1; first compound 0.1 µM
  relative viability: 1.06
ABC-1; first compound 0.3162 µM
  relative viability: 1.47
ABC-1; first compound 1 µM
  relative viability: 1.13
NCI-H441; first compound 0.01 µM
  relative viability: 0.801
NCI-H441; first compound 0.03162 µM
  relative viability: 0.62
NCI-H441; first compound 0.1 µM
  relative viability: 0.698
NCI-H441; first compound 0.3162 µM
  relative viability: 0.708
NCI-H441; first compound 1 µM
  relative viability: 0.773
PC-14; first compound 0.01 µM
  relative viability: 1.02
PC-14; first compound 0.03162 µM
  relative viability: 1.08
PC-14; first compound 0.1 µM
  relative viability: 0.879
PC-14; first compound 0.3162 µM
  relative viability: 1.16
PC-14; first compound 1 µM
  relative viability: 0.943
NCI-H2170; first compound 0.01 µM
  relative viability: 0.92
NCI-H2170; first compound 0.03162 µM
  relative viability: 0.822
NCI-H2170; first compound 0.1 µM
  relative viability: 0.831
NCI-H2170; first compound 0.3162 µM
  relative viability: 0.894
NCI-H2170; first compound 1 µM
  relative viability: 0.807
BEN; first compound 0.01 µM
  relative viability: 1.17
BEN; first compound 0.03162 µM
  relative viability: 0.891
BEN; first compound 0.1 µM
  relative viability: 0.882
BEN; first compound 0.3162 µM
  relative viability: 1.12
BEN; first compound 1 µM
  relative viability: 0.801
NCI-H661; first compound 0.01 µM
  relative viability: 0.537
NCI-H661; first compound 0.03162 µM
  relative viability: 0.382
NCI-H661; first compound 0.1 µM
  relative viability: 0.657
NCI-H661; first compound 0.3162 µM
  relative viability: 0.858
NCI-H661; first compound 1 µM
  relative viability: 0.535
LOU-NH91; first compound 0.01 µM
  relative viability: 0.672
LOU-NH91; first compound 0.03162 µM
  relative viability: 0.673
LOU-NH91; first compound 0.1 µM
  relative viability: 0.741
LOU-NH91; first compound 0.3162 µM
  relative viability: 0.734
LOU-NH91; first compound 1 µM
  relative viability: 0.696
